Measured values published in paper PMC6934184, “Selective DNA-PKcs inhibition extends the therapeutic index of localized radiotherapy and chemotherapy” (The Journal of Clinical Investigation, 2019).

Tested on: Calu-6 subcutaneous xenografts
Assay: subcutaneous Calu-6 xenograft with fractionated radiation (4 × 5 Gy)
Assay type: in vivo, mouse
Conditions: 30 mg/kg oral 30 min before and 5 h after each of 4 × 5 Gy; CD-1 nude mice
Protocol: To examine the effect of NU5455 treatment on efficacy versus a late radiation toxicity, a total dose of 20 Gy of thoracic radiation was administered either to CD-1 nude mice bearing subcutaneous Calu-6 tumors or to non–tumor-bearing C57BL/6 mice, as four 5-Gy fractions given on days 1, 4, 7, and 10. This fractionated regimen was adapted from an existing method ([30]), resulting in focal areas of lung fibrosis at 24 weeks following treatment, but at a level that would enable any exacerbation of fibrosis to be readily detected.
Figure 5 NU5455 augments the effect of fractionated radiotherapy in Calu-6 tumors without enhancing late radiation damage to the lung. (A) Mean tumor volume of mice bearing Calu-6 subcutaneous xenografts treated with localized radiation (4 × 5 Gy on days 1, 4, 7, and 10) with either NU5455 (30 mg/kg orally) or vehicle 30 minutes before and 5 hours after each dose of IR (3–5 mice per group). The time taken to reach 2 times the tumor volume at the start of treatment (RTV2) was also assessed. […] Samples were scored using the modified Ashcroft system on a scale of 0 to 8 (5–9 mice per group). […] Statistical significance was assessed using a log-rank test (A) and 1-way ANOVA (B). *P < 0.05, **P < 0.01, ****P < 0.0001.

CN(C(=O)CN1CCOCC1)c1ccc2sc3c(-c4cccc5c(=O)cc(N6CC7CCC(C6)O7)oc45)cccc3c2c1 [NU5455]
time taken for tumors to double in volume (RTV2): increase the time taken
